Measurements: BindingDB's records for doi:10.1080/14756360600991017 (University of Athens, 2007)

molecular target: T1, Seed linoleate 13S-lipoxygenase-1 (Glycine max, UniProt P08170); experiment: Inhibition Assay; conditions: 25 °C
T1 sequence (P08170 whole entry): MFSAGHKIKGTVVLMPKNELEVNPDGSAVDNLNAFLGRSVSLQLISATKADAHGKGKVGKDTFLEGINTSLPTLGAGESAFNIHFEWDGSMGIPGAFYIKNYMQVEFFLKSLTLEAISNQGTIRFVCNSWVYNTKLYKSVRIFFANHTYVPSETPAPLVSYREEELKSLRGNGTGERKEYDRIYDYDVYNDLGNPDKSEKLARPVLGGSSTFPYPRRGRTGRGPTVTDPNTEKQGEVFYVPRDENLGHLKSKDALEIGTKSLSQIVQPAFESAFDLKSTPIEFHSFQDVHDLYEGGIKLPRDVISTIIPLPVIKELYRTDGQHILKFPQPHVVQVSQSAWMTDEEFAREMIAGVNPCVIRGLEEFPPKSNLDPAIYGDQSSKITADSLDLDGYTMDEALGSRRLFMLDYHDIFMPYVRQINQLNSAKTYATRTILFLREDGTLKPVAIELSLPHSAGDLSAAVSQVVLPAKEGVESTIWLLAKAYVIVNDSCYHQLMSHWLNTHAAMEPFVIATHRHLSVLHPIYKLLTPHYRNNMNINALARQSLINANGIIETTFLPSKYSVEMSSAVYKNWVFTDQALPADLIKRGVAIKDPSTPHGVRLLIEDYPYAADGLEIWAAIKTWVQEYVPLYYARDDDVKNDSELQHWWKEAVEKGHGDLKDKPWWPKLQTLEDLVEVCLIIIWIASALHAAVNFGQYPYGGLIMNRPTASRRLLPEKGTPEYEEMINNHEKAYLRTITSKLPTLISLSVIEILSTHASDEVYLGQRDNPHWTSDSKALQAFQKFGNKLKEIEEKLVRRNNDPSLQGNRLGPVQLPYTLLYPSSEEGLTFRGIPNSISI
Description: soybean lipoxygenase and linoleic acid sodium salt were obtained from Sigma Chemical, Co. in St. Louis, MO. Each experiment of the in vitro assay was performed at least in triplicate and the standard deviation of absorbance was less than 10% of the mean.

Which IC50 does the source give for `O=C(O)C[C@H]1CCC(=O)[C@@H]1C/C=C/CCO[C@H]1OC(CO)[C@H](O)C(O)[C@H]1O` (some centres undefined) [12-hydroxy-jasmonic acid 12-O-B-glucoside, 4] here?
Its IC50 is 560 µM.

For `O=C(/C=C/c1ccc(O)c2c1C(C(=O)O[C@@H](Cc1ccc(O)c(O)c1)C(=O)O)[C@@H](c1ccc(O)c(O)c1)O2)O[C@H](Cc1ccc(O)c(O)c1)C(=O)O` (some centres undefined) [Lithospermic acid, 3], which IC50 is on record?
Its IC50 is 1000 µM.

How did the IC50 turn out when `O=C(/C=C/c1ccc(O)c(O)c1)O[C@H](Cc1ccc(O)c(O)c1)C(=O)O` [Rosmarinic acid, 2] was run?
The IC50 was 1150 µM.

`CC(C)C1=C[C@H](O)[C@@](C)(O[C@@H]2OC(CO)[C@@H](O)[C@H](O)C2O)CC1` (some centres undefined) [p-menth-3-ene-1,2-diol 1-O-B-glucopyranoside, 5] was tested. Which IC50 did it give?
The IC50 was 360 µM.
